From patent publication US20250161297A1, “COMPOSITIONS AND METHODS FOR INHIBITING FSP1” (THE REGENTS OF THE UNIVERSITY OF CALIFORNIA, priority 2022, published 2025) come the findings set out here.

Format in all cases: cell-based
Series [1] deals with H460^C FSP1^KO cells. Briefly: FDA and Bioactive Library synthetic lethal screen. Particulars: 24 h. On the procedure: FDA and Bioactive Library Screen: For FDA and Bioactive Library Screen experiments, cells were seeded at a density of 750 cells per 25 uL per well in black 384-well plates (NUNC) and (Corning) 24 hr before start of imaging. After 24 hr, an additional 25 μL of drug infused medium containing 30 nM SYTOX Green Dead Cell Stain was carefully placed into the wells on top of existing medium. The plates were immediately transferred to an IncuCyte S3 imaging system (Essen Bioscience) enclosed in an incubator set to 37° C. and 5% CO2. One image per well were captured in the phase, green, and red channels every 4 hr over a 24 hr period, and the ratio of SYTOX Green-positive objects (dead cells) to SYTOX Green-positive plus SgSAFE mCherry-positive objects (total cells) was quantified using S3 image analysis software (Essen Bioscience). For each treatment condition, the SYTOX-to-‘SYTOX+mCherry’-object ratio was plotted against the 24 hr imaging interval, the Area Under the Curve (AUC) was calculated, and the average AUC was plotted as a function of drug concentration (for example, RSL3) using Prism (GraphPad). To calculate the half-maximal effective concentration (EC50) values, the AUC curve was fit to a variable slope function comparing response to drug concentration. […]

Series [2] relates to H460^C cells. Description: DHA- and FINO2-induced cell death with FSEN1 co-treatment. As for the experimental part: (§1) For cell-based screen, cells were seeded in triplicate at a density of 500-750 cells per 50 μL per well in black 384-well plates (NUNC) and (Corning) 24 hr before start of imaging. After 24 hr, an additional 50 μL of drug infused medium containing 30 nM SYTOX Green Dead Cell Stain was carefully placed into the wells on top of existing medium. The plates were immediately transferred to an IncuCyte S3 imaging system (Essen Bioscience) enclosed in an incubator set to 37° C. and 5% CO2. One image per well were captured in the phase, green, and red channels every 1.5 or 3 hr over a 24 hr period, and the ratio of SYTOX Green-positive objects (dead cells) to SYTOX Green-positive plus Sg-SAFE mCherry-positive objects (total cells) was quantified using S3 image analysis software (Essen Bioscience). For each treatment condition, the SYTOX-to-′SYTOX+mCherry′-object ratio was plotted against the 24 hr imaging interval, the Area Under the Curve (AUC) was calculated and the average AUC was plotted using Prism (GraphPad). To calculate the half-maximal effective concentration (EC50) values, the AUC curve was fit to a variable slope function comparing response to drug concentration.
(§2) Synergy experiments: For cell-based synergy experiments, cells were seeded at a density of 750 cells per 25 μL per well in four black 384-well plates (Corning) 24 hr before start of imaging. After 24 hr, an additional 25 μL of drug infused medium containing 30 nM SYTOX Green Dead Cell Stain was carefully placed into the wells on top of existing medium. The plates were immediately transferred to an IncuCyte S3 imaging system (Essen Bioscience) enclosed in an incubator set to 37° C. and 5% CO2. One image per well were captured in the phase, green, and red channels every 4 hr over a 24 hr period, and the ratio of SYTOX Green-positive objects (dead cells) to SYTOX Green-positive plus Sg-SAFE mCherry-positive objects (total cells) was quantified using S3 image analysis software (Essen Bioscience). For each treatment condition, the SYTOX-to-′SYTOX+mCherry′-object ratio was plotted against the 24 hr imaging interval, the Area Under the Curve (AUC) was calculated, and the average AUC was plotted as a function of drug concentration (for example, RSL3) using Prism (GraphPad). To calculate the half-maximal effective concentration (EC50) values, the AUC curve was fit to a variable slope function comparing response to drug concentration.

The subject of series [3] is H460^C cells. Description: GPX4 inhibitor-induced cell death with FSEN1 co-treatment. On the procedure: as §1, §2
For series [4], the system named is panel of cancer cell lines of various tissue origins. Briefly: RSL3-induced cell death in a panel of cancer cell lines. The conditions noted are these: RSL3 plus FSEN1; 2 μM Fer-1. On the procedure:
as §1, with “concentration. […]” for “concentration.”

Residues, ends and D or L forms follow the SMILES beside them. *: point of attachment. Cbz = O=C(OCc1ccccc1)*; CH2F = FC*

Broadly, the EC50 is the concentration that produces a half-maximal response. Take `C[C@H]1[C@@H](O)O[C@@H]2O[C@@]3(C)CC[C@H]4[C@H](C)CC[C@@H]1[C@@]24OO3` [DHA, dihydroartemisinin]: the “cytotoxicity in H460^C FSP1^KO cells” value in series [1] is listed as “selectively induced cell death”. Further, in series [2] (DHA and FSEN1 treatment together), the EC50 is 21.3 µM.
On to `CN1C(=O)NC(Cc2c[nH]c3c(Cl)cccc23)C1=O` (stereo not drawn) [Nects], for which, in series [3], the “effect on cell death induced by co-treatment of FSEN1 with RSL3” value (“effect on cell death induced … with RSL3” for short) is recorded as “no effect”.
For the molecule `COC(=O)c1ccc([C@@H]2c3[nH]c4ccccc4c3C[C@@H](C(=O)OC)N2C(=O)CCl)cc1` [RSL3], in series [1], the “cytotoxicity in H460^C FSP1^KO cells” value is listed as “cytotoxic”.
With `COC(=O)C[C@H](NC(=O)[C@H](C)NC(=O)[C@@H](NC(=O)OCc1ccccc1)C(C)C)C(=O)CF` [Z-VAD] (Cbz-Val-Ala-Asp(OMe)-CH2F), the “effect on cell death induced … with RSL3” value in series [3] was “no effect”.
For the molecule `CCOC(=O)c1ccc(NC2CCCCC2)c(N)c1` [ferrostatin-1], the “effect on cell death induced … with RSL3” value in series [3] is given as “blocked”. Moreover, the “effect on cell death by co-treatment” value in series [4] is recorded as “rescued”. Besides, the “effect on cell death induced by DHA and FSEN1 together” value in series [2] was “strongly suppressed”.
In the case of `COC1=C(OC)C(=O)C(CCCCCCCCCCO)=C(C)C1=O` [idebenone], the “effect on cell death induced … with RSL3” value in series [3] is listed as “blocked”. Further, the “effect on cell death induced by DHA and FSEN1 together” value in series [2] is recorded as “strongly suppressed”.
In the same order, the values of tocopherol are “blocked” and “strongly suppressed”.
